# Measurements taken from ChEMBL document CHEMBL1201862, “PubChem BioAssay data set” (2004).
# Activity calls are given as the source filed them.
# How the values were obtained:
# [1] = target: Heat shock protein HSP 90-alpha (Homo sapiens, UniProt P07900); type: functional, organism-based
# HeLa = experiment: Cytotoxicity counterscreen assay for transcriptional activators of heat shock protein 70 (Hsp70). [Related pubchem assays: 1203, 1252 ]; type: functional; settings: Homo sapiens
# INS1 = experiment: beta cell apoptosis inhibitors, cytokine rescue, dose response, luminescence, retest (AID 449756); type: functional, cell-based; settings: Rattus norvegicus;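 further: cell death triggered by IL-1 beta plus TNF-alpha plus IFN-gamma mixture; protective hits raise ATP signal compared with cytokine alone wells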
# Cytochrome P450 2D6 = Cytochrome P450 2D6 (Homo sapiens, UniProt P10635);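 further: CYP2D6 member of a cytochrome P450 panel assay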
# SUMO-activating enzyme = SUMO-activating enzyme (Homo sapiens, UniProt Q9UBT2); experiment: inhibitors of in vitro SUMOylation cascade, primary screen, biochemical, HTRF, uHTS (AID 2006); type: protein-complex assay
# Chain of SUMO-activating enzyme (Q9UBE0 whole entry): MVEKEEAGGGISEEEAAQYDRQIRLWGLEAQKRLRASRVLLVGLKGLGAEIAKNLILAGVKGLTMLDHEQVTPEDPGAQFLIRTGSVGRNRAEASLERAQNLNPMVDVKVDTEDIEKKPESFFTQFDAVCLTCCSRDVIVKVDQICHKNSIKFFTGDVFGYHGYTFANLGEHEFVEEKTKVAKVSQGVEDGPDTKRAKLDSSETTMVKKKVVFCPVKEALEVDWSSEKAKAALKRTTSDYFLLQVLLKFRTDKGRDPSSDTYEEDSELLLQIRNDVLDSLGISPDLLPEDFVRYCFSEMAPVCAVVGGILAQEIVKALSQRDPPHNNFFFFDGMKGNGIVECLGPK
# Chain of SUMO-activating enzyme (Q9UBT2 whole entry): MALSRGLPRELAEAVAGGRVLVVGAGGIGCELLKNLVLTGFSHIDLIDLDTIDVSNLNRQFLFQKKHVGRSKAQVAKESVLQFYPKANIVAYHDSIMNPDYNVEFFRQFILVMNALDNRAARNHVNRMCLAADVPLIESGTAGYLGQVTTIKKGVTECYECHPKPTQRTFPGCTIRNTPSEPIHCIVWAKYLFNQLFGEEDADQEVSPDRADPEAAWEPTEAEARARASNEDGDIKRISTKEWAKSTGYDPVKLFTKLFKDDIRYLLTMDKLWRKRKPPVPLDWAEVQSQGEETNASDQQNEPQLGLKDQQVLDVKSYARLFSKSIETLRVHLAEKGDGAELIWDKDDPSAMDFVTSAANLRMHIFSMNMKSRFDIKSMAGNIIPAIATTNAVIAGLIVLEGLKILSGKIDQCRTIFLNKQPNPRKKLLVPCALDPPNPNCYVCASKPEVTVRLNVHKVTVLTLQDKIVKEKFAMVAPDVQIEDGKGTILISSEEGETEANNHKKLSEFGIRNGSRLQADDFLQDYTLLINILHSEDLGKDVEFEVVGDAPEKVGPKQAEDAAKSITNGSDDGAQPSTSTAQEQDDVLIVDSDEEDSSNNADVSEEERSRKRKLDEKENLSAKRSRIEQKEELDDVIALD
# [2] = target: Protein-tyrosine kinase 2-beta (Homo sapiens, UniProt Q14289);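 further: potency of inhibitors of PYK2 kinase phosphorylation of poly-GT substrate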
# Chain of Protein-tyrosine kinase 2-beta (Q14289 whole entry): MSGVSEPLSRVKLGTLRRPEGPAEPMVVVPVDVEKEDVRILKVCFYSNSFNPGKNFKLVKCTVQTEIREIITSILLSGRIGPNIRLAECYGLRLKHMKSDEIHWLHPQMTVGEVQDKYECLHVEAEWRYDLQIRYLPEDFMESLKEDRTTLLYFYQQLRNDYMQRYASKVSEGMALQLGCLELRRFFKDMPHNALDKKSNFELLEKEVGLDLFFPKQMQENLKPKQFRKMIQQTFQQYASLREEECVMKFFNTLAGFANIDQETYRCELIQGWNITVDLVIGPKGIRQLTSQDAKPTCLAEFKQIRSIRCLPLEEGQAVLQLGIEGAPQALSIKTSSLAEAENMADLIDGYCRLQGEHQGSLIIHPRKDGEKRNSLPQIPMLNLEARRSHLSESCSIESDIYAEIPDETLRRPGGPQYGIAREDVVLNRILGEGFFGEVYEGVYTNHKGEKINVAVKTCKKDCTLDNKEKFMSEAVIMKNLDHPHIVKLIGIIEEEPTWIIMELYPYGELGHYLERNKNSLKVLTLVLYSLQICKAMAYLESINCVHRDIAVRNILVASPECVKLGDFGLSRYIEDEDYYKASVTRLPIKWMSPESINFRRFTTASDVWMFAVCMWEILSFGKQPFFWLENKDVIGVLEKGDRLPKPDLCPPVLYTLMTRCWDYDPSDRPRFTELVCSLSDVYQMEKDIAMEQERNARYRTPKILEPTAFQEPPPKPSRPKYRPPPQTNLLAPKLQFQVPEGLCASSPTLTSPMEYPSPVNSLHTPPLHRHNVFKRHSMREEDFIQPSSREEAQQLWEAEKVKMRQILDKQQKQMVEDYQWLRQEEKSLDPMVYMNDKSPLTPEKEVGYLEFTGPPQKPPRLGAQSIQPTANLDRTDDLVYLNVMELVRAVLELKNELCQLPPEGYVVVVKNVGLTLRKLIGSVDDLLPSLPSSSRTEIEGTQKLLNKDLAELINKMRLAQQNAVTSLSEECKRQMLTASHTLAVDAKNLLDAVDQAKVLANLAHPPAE
# Estrogen receptor = target: T1, Estrogen receptor (Homo sapiens, UniProt P03372);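 further: potency for inhibiting coactivator peptide recruitment to the receptor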
# T1 sequence (P03372 whole entry): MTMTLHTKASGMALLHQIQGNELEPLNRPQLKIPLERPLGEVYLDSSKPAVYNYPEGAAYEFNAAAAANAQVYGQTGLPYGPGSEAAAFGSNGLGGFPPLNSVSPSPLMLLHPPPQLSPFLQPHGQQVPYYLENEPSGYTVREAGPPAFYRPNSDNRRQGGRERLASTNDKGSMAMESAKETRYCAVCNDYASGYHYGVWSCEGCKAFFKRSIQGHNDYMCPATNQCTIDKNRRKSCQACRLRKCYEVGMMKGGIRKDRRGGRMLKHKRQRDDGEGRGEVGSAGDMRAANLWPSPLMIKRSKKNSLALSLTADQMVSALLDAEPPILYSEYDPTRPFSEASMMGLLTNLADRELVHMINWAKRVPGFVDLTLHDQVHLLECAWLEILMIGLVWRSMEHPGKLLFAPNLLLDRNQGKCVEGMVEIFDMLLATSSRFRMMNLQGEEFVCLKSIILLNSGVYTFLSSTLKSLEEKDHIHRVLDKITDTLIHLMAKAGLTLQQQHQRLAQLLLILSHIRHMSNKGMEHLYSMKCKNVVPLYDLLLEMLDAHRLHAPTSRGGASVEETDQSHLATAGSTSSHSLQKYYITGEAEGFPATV
# [3] = enhancers of respiration in Yfh1-depleted yeast, dose response, Friedreich's ataxia, plus single-dose screen (AID 1465); type: functional;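 further: yeast depleted of Yfh1p frataxin homolog grown on glycerol needing respiration; WST-1 tetrazolium dye reduction as measure of cellular dehydrogenase metabolic activity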
# Genome polyprotein = Genome polyprotein (dengue virus type 2, UniProt P29990); experiment: Dengue-2 NS5 methyltransferase inhibitors, primary screen, biochemical, confirmation dose response (AID 588689); type: functional
# [4] = C. albicans growth with fluconazole, confirmation, fluorescence, retest (AID 2467); type: functional, cell-based
# [5] = NIH-3T3 fibroblast cytotoxicity, dose response, cytotoxicity control, cell-based, fluorescence, Alamar Blue, secondary assay (AID 2327); type: functional;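 further: NIH-3T3 mouse fibroblasts cultured with fluconazole at 8 µg/mL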
# [6] = inhibitors of Bluetongue virus cytopathic effect, confirmation, arbovirus, BSR cells (AID 1250); type: functional;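 further: protection from viral cytopathic effect measured as cell viability by ATP luminescence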
# [7] = target: Peroxisome proliferator-activated receptor gamma/Nuclear receptor coactivator 2 (Homo sapiens, UniProt P37231); type: functional;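 further: agonist potency for raising coactivator recruitment to the receptor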
# [8] = target: Peroxisome proliferator-activated receptor gamma/Nuclear receptor coactivator 1 (Homo sapiens, UniProt P37231); type: functional;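 further: agonist potency as compounds enhance coactivator SRC-1 recruitment to PPARgamma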
# Chain of Peroxisome proliferator-activated receptor gamma/Nuclear receptor coactivator 1 (P37231 whole entry): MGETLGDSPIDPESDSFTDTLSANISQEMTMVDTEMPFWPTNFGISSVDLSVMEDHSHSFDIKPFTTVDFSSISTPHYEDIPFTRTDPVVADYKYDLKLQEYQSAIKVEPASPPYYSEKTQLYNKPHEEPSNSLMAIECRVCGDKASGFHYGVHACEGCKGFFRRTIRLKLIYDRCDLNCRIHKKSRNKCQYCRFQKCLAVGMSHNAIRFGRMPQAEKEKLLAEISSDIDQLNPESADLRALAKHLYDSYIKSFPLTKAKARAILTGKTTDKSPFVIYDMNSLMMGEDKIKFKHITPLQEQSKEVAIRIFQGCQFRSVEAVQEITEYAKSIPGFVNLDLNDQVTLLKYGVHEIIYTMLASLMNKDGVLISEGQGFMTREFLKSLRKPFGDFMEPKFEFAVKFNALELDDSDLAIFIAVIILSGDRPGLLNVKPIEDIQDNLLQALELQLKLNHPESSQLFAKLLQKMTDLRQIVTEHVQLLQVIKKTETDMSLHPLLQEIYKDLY
# Chain of Peroxisome proliferator-activated receptor gamma/Nuclear receptor coactivator 1 (Q15788 whole entry, further chain): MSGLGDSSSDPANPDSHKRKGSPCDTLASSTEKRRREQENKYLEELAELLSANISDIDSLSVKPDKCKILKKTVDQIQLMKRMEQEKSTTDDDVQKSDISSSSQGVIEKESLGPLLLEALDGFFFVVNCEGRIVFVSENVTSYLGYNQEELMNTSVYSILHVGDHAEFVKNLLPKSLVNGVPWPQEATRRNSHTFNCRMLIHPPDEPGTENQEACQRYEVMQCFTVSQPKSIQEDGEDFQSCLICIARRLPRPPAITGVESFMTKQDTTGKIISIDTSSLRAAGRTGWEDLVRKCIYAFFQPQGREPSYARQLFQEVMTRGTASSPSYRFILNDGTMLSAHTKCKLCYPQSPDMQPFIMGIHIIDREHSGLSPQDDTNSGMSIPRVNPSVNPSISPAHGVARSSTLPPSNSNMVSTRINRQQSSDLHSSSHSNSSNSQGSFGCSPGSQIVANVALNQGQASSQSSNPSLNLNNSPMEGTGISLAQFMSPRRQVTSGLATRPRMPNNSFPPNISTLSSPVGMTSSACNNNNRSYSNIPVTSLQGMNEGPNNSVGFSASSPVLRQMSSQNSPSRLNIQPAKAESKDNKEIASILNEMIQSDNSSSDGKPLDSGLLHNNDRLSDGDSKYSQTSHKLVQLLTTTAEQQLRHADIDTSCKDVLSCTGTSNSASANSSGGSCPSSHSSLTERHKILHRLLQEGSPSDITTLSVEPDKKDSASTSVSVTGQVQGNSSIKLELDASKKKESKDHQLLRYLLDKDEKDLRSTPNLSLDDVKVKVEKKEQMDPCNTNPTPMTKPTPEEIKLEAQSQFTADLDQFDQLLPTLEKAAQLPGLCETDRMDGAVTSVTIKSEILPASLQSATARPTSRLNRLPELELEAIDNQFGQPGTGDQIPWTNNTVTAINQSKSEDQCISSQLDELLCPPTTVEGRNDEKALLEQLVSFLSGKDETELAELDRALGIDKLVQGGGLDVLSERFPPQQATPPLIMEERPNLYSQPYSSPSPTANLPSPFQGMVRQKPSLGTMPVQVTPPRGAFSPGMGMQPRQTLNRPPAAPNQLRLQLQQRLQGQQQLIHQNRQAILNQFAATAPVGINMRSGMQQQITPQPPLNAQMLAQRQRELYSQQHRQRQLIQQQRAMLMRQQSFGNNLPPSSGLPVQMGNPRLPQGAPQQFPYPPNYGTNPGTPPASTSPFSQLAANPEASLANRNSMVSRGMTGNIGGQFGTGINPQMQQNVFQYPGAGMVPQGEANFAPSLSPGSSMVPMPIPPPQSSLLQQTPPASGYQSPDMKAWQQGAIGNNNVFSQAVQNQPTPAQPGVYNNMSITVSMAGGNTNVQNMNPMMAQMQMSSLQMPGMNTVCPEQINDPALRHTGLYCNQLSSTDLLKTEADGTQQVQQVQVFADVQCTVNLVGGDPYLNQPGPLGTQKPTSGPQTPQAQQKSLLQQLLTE
# [9] = target: ADP-ribosylation factor GTPase-activating protein 1 (Rattus norvegicus, UniProt Q62848); experiment: Fluorescence polarization-based biochemical high throughput dose response screening assay to identify inhibitors of ADP-ribosylation factor GTPase activating protein 1 (ARFGAP1).; type: functional
# Chain of ADP-ribosylation factor GTPase-activating protein 1 (Q62848 whole entry): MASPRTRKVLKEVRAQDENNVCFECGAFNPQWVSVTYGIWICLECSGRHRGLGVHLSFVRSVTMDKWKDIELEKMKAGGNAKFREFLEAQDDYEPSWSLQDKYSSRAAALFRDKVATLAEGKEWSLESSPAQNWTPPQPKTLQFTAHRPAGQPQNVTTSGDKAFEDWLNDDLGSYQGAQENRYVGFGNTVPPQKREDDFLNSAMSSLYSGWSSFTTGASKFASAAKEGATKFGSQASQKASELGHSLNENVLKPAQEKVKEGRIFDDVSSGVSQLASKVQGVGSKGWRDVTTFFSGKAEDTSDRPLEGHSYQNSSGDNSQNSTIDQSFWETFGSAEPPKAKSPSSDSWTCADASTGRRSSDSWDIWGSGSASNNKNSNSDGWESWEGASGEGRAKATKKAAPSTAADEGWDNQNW
# [10] = target: Peroxisome proliferator-activated receptor gamma/Nuclear receptor coactivator 3 (Homo sapiens, UniProt P37231); type: functional;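 further: agonist potency for raising coactivator recruitment to the receptor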
# [11] = inhibitors of firefly luciferase expression or activity, dose response, H4 neuroglioma cells, luminescence (AID 1990); type: functional, cell-based
# [12] = Luminescence-based dose response cell-based high throughput screening assay for cytotoxic compounds using the IEC-6 intestinal epithelial cell line. [Related pubchem assays: 1858 (Summary AID.), 1825 (Counterscreen.), 1907 (Confirmation screen.)]; type: functional
# [13] = Luminescence Cell-Based Dose Response HTS to Identify Inhibitors of 5'UTR Stem-Loop Driven Prion Protein mRNA Translation in H4 Neuroglioblastoma Cells. [Related pubchem assays: 1827 (Project Summary), 1813 (Primary HTS)]; type: functional
# [14] = inhibitors of SNCA 5'UTR-driven reporter translation, confirmation, H4 neuroglioma cells, luminescence (AID 1988); type: functional, cell-based
# [15] = Luminescence Cell-Based Dose Retest to Confirm Inhibitors of Cancer Stem Cells. [Related pubchem assays (depositor defined):AID2717, AID2721]; type: functional; settings: Homo sapiens
# [16] = Fluorescence-based cell-based high throughput dose response assay for inhibitors of the interaction of nucleotide-binding oligomerization domain containing 2 (NOD2) and the receptor-interacting serine-threonine kinase 2 (RIPK2).; type: functional; settings: Homo sapiens
# [17] = insulin promoter down-regulators in MIN6 cells, imaging, high-content screening, mouse beta cells (AID 1628); type: functional
# [18] = target: Sphingosine 1-phosphate receptor 4 (Homo sapiens, UniProt O95977); experiment: Fluorescence dose response cell-based high throughput screening assay for antagonists of the Sphingosine 1-Phosphate Receptor 4 (S1P4). [Related pubchem assays: 1524 (Confirmation in triplicates.), 1510 (Primary screen.)]; type: functional
# [19] = cytotoxicity in MIN6 insulinoma cells, dose response, cytotoxicity control, cell-based, mouse insulinoma (AID 2122); type: functional;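 further: confirmatory high-throughput counterscreen run to flag cytotoxic compounds; mouse MIN-6 beta cells carrying an insulin promoter eGFP reporter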
# [20] = target: Sphingosine 1-phosphate receptor 1 (Homo sapiens, UniProt P21453); type: functional;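 further: Tango beta-arrestin reporter U2OS cells stimulated with S1P near its EC80; inhibitor potency meaning antagonism of receptor activation by the natural agonist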
# [21] = inhibitors of PGC1a acetylation in cells, dose response, cell-based, cherry-picked samples (AID 720514); type: functional;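 further: potency may reflect raised or lowered acetylation signal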
# [22] = target: T2, Heat shock factor protein 1 (Mus musculus, UniProt P38532); experiment: HSF1 potentiators in luciferase reporter cells, confirmation, cell-based, NIH3T3, luminescence, dose retest (AID 435004); type: functional;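 further: stress induced by proteasome inhibitor MG132 added 30 min after compound; luciferase reporter driven by HSF1 response element in NIH3T3 cells; actives raise luminescence as potentiators of the MG132 stress response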
# T2 sequence (P38532 whole entry): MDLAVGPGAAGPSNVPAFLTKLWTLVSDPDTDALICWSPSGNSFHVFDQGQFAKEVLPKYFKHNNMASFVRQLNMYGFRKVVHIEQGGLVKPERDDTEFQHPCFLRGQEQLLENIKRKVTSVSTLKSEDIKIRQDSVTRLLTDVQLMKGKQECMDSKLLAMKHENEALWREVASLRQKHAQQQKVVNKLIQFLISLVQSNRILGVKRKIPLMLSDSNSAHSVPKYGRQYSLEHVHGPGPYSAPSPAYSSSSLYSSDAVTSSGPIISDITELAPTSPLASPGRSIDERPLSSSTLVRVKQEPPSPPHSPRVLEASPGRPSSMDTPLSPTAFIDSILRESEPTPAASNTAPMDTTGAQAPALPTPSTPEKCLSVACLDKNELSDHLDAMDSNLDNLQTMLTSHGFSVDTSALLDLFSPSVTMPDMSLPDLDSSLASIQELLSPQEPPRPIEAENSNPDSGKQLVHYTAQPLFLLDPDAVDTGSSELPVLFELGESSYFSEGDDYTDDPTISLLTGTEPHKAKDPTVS
# HEK293 [23] = experiment: cells; settings: Homo sapiens
# HEK293 [24] = experiment: cells; settings: Homo sapiens; remark: listed apart in the source
# Paired box protein Pax-8 = Paired box protein Pax-8 (Homo sapiens, UniProt Q06710); experiment: inhibitors of PAX8-driven TPO luciferase reporter, dose response, RMG-I cells, cherry-pick (AID 687027); type: functional, cell-based;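 further: luciferase reporter driven by Pax8 target thyroperoxidase promoter measured by SteadyGlo luminescence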
# Galanin receptor type 2 = Galanin receptor type 2 (Homo sapiens, UniProt O43603); experiment: Dose Response cell-based high-throughput screening assay to identify antagonists of galanin receptor 2 (GALR2). [Related pubchem assays: 828, 866 ]; type: functional
# Chain of Galanin receptor type 2 (O43603 whole entry): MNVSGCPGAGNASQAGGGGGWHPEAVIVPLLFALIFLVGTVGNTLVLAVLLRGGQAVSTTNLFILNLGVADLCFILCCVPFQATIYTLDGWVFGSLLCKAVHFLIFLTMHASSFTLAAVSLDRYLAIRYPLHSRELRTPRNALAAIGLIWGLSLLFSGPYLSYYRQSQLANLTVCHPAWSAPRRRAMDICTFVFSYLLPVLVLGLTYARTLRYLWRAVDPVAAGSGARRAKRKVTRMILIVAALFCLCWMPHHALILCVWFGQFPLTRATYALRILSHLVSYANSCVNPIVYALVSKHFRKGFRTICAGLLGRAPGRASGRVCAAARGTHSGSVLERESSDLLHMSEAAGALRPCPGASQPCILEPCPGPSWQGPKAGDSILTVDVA
# [25] = A Cell Based Secondary Assay To Explore Cytotoxicity of Compounds that Sensitize Mycobacterium Tuberculosis to Beta-Lactam Antibiotics.; type: functional
# H9c2 = experiment: cells; type: functional, cell-based; settings: Rattus norvegicus, H9c2, Myocardium;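 further: confirmatory concentration-response retest of ultra-high-throughput screening hits for modulation of myocardial damage; cell death induced by hydrogen peroxide oxidative stress; compound pretreatment for 60 min then peroxide exposure for 2 h; potency is for protecting the cells against peroxide damage rather than for killing them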
# [26] = target: T3, Microphthalmia-associated transcription factor (Homo sapiens, UniProt O75030); experiment: TRPM1 promoter luciferase signal decrease, dose response, MITF inhibitor project, cell-based, SK-MEL-5, cherry-picked, set 3 (AID 493073); type: functional
# T3 sequence (O75030 whole entry): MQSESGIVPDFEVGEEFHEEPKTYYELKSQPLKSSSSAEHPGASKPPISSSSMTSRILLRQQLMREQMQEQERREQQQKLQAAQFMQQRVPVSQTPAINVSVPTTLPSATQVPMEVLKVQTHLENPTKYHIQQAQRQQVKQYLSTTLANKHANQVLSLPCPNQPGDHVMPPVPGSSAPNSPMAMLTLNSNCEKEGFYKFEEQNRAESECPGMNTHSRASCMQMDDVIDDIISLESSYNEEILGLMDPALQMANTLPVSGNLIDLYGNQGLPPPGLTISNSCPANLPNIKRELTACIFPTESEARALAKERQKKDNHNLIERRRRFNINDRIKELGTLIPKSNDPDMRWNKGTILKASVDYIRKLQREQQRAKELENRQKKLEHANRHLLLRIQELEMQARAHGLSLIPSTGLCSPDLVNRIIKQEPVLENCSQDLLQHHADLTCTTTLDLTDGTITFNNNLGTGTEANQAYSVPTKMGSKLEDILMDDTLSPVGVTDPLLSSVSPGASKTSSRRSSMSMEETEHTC
# [27] = ZM109 Env clade C HIV-1 fusion inhibitors, dose response, HeLa effector, CEM target cells, luciferase, cherry-pick (AID 652058); type: functional, cell-based
# [28] = Luminescence-based counterscreen assay for KLF5 inhibitors: dose response cell-based high throughput screening assay to identify cytotoxic compounds using the IEC-6 intestinal epithelial cell line. [Related pubchem assays: 1700 (Primary screen.), 1834 (Confirmation screen.), 1858 (Summary AID.), 1905 (Counterscreen.)]; type: functional
# [29] = off-target signal loss in HeLa-CEM21 co-culture – HeLa F-luc CTL cells, cherry-picked, counter-screen for HIV-1 Env fusion inhibitor project, dose response (AID 652040); type: functional, cell-based;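 further: potency for signal decrease marking cytotoxic or nonspecific inhibition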
# [30] = target: T2, Heat shock factor protein 1; experiment: inhibition of MG132-induced HSE-luciferase signal, confirmation, cell-based, NIH3T3, luminescence, dose retest (AID 2382); type: functional;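 further: NIH3T3 fibroblasts with HSF1-driven luciferase reporter stressed by proteasome inhibitor MG132; luminescence from HSF1-driven luciferase expression after 8 hours of MG132 stress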
# [31] = inhibitors of clade B AD8 Env fusion, dose response, cell-based, cherry-pick (AID 652062); type: functional;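 further: luciferase signal from cell-cell fusion driven by HIV-1 clade B AD8 Env; potency is for inhibitors of fusion seen as a drop in luminescence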
# [32] = inhibitors of HIV Env-driven cell fusion, dose response, cherry-pick (AID 652057); type: functional, cell-based
structure (smiles),measurement,setting,value
CC(C)(C)C1C/C(=C/c2ccccn2)C(=O)/C(=C/c2ccccn2)C1 (centres undefined),AC50,[1],7.8 µM (active)
same,CC50,HeLa,> 1.22 µM (not active)
same,AC50,INS1,0.579 µM (active)
O=C(Nc1ccc(-n2nncc2-c2ccco2)cc1)c1cc2ccccc2oc1=O,AC50,Cytochrome P450 2D6,2.51 µM (inconclusive)
same,IC50,SUMO-activating enzyme,14.7 µM (active)
same,IC50,[2],1.9 µM (active)
same,IC50,Estrogen receptor,40.6 µM (not active)
CC(C)NC(=O)/C(C#N)=C/c1ccc(N(C)C)o1,EC50,[3],> 100 µM (active)
CCCCCCn1c(=O)c(-c2ccccc2)c(O)c2ccccc21,IC50,Genome polyprotein,69.4 µM (active)
same,EC50,[4],4.42 µM (active)
same,EC50,[5],> 150 µM (inactive)
same,IC50,[6],25 µM (active)
COc1ccccc1CNC(=O)CSc1nc(N)c(C#N)c(-c2cccs2)c1C#N,EC50,[7],67.6 µM (not active)
same,EC50,[8],> 79.4 µM (not active)
same,IC50,[9],43.2 µM (inactive)
same,EC50,[10],> 79.4 µM (not active)
CC(C)NCC(O)Cn1c2c(c3ccccc31)CCc1c-2cnn1-c1ccccc1 (centres undefined),EC50,[11],8.19 µM (active)
same,IC50,[12],3.51 µM (active)
same,EC50,[13],10.7 µM (active)
same,EC50,[14],6.18 µM (active)
O=C(Cn1ncc(Cl)c(Cl)c1=O)N1CCN(S(=O)(=O)c2ccc3ccccc3c2)CC1,AC50,[15],3.25 µM (active)
same,IC50,[16],1.77 µM (active)
same,IC50,[17],1.34 µM (active)
same,IC50,[18],1.52 µM (active)
same,IC50,[19],1.19 µM (active)
same,IC50,[20],8.59 µM (active)
same,AC50,[21],4.24 µM (active)
same,EC50,[22],3.7 µM (active)
same,EC50,HEK293 [23],> 59.6 µM (inactive)
same,EC50,HEK293 [24],> 59.6 µM (inactive)
same,AC50,Paired box protein Pax-8,2.51 µM (active)
same,IC50,Galanin receptor type 2,5.37 µM (active)
Nc1c(C(=O)NC2CC2)c2nc3ccccc3nc2n1-c1ccc2c(c1)OCO2,CC50,[25],> 40 µM (active)
same,IC50,H9c2,> 79 µM (inactive)
O=C(NC1=NCCS1)C1COc2ccccc2O1 (centres undefined),AC50,[26],1.7 µM (active)
same,EC50,[11],3.37 µM (active)
same,AC50,[27],13.7 µM (active)
same,IC50,[28],> 39.8 µM (not active)
same,AC50,[29],3.15 µM (active)
same,EC50,[30],8.01 µM (active)
same,AC50,[31],3.6 µM (active)
same,EC50,[13],> 60 µM (not active)
same,AC50,[32],1.62 µM (active)
same,EC50,[14],0.149 µM (active)
